The values that follow are results of earlier work, collected in patent publication US20250208121A1, “MAMMALIAN PER- AND POLYFLUORINATED-ALKYL COMPOUND (PFAS) BINDING PROTEINS AND USES THEREOF” (Allonnia, LLC, priority 2023, published 2025).

The conditions of this series: in humans; previous research.

For the molecule `O=C(O)C(F)(F)C(F)(F)C(F)(F)C(F)(F)C(F)(F)C(F)(F)C(F)(F)F` [PFOA, perfluorooctanoic acid], the half-life was around 3.8 years. For `O=S(=O)(O)C(F)(F)C(F)(F)C(F)(F)C(F)(F)C(F)(F)C(F)(F)C(F)(F)C(F)(F)F` [PFOS, perfluorooctanesulfonic acid], the half-life result is “approximately 5.4 years”.
